In the NIST ThermoML archive (doi:10.1016/j.jct.2013.08.030):
± gives the expanded uncertainty stated by the source.

Key:
[1] = 101.33 kPa, Liquid, Vibrating tube method
[2] = activity coefficient (dimensionless); of the first substance listed, at infinite dilution; xn = mol fraction of the nth substance listed; details: 101 kPa, Liquid, Chromatography, x1 = 0

Row | Compound | mass density ([1]; 288.15 K) [kg/m3] | mass density ([1]; 298.15 K) [kg/m3] | mass density ([1]; 308.15 K) [kg/m3] | mass density ([1]; 318.15 K) [kg/m3] | mass density ([1]; 328.15 K) [kg/m3] | mass density ([1]; 338.15 K) [kg/m3] | mass density ([1]; 348.15 K) [kg/m3] | mass density ([1]; 358.15 K) [kg/m3] | mass density ([1]; 368.15 K) [kg/m3] | activity coefficient ([2]; 318.15 K) | activity coefficient ([2]; 328.15 K) | activity coefficient ([2]; 338.15 K) | activity coefficient ([2]; 348.15 K) | activity coefficient ([2]; 358.15 K) | activity coefficient ([2]; 368.15 K)
1 | CCCC[N+]1(C)CCOCC1.N#C[C-](C#N)C#N [4-butyl-4-methylmorpholinium tricyanomethanide] | 1073.6 ± 2.2 | 1067.03 ± 2.2 | 1060.79 ± 2.2 | 1054.69 ± 2.2 | 1048.61 ± 2.1 | 1042.61 ± 2.1 | 1036.67 ± 2.1 | 1030.77 ± 2.1 | 1024.3 ± 2.1 | – | – | – | – | – | –
2 | CCCCCCCC [octane] + CCCC[N+]1(C)CCOCC1.N#C[C-](C#N)C#N | – | – | – | – | – | – | – | – | – | 125 ± 9 | 113 ± 8 | 102 ± 7 | 93.4 ± 6.4 | 86.5 ± 5.9 | 78.6 ± 5.4
3 | CC(C)=O [acetone] + CCCC[N+]1(C)CCOCC1.N#C[C-](C#N)C#N | – | – | – | – | – | – | – | – | – | 0.741 ± 0.049 | 0.75 ± 0.049 | 0.765 ± 0.05 | 0.774 ± 0.051 | 0.791 ± 0.051 | 0.798 ± 0.052
4 | C1CCCCCCC1 [cyclooctane] + CCCC[N+]1(C)CCOCC1.N#C[C-](C#N)C#N | – | – | – | – | – | – | – | – | – | 37 ± 2.5 | 34.1 ± 2.3 | 31.2 ± 2.1 | 29.1 ± 2 | 27 ± 1.8 | 25.1 ± 1.7
5 | CCOC(C)(C)C [2-ethoxy-2-methylpropane] + CCCC[N+]1(C)CCOCC1.N#C[C-](C#N)C#N | – | – | – | – | – | – | – | – | – | 16.8 ± 1.1 | 16.2 ± 1.1 | 15.6 ± 1.1 | 15.3 ± 1 | 14.9 ± 1 | 14.6 ± 1
6 | C1CCCCC1 [cyclohexane] + CCCC[N+]1(C)CCOCC1.N#C[C-](C#N)C#N | – | – | – | – | – | – | – | – | – | 22.6 ± 1.5 | 20.8 ± 1.4 | 19.3 ± 1.3 | 18 ± 1.2 | 16.9 ± 1.2 | 16 ± 1.1
7 | CCCCCCC [heptane] + CCCC[N+]1(C)CCOCC1.N#C[C-](C#N)C#N | – | – | – | – | – | – | – | – | – | 84 ± 5.8 | 76.8 ± 5.3 | 69.6 ± 4.8 | 63.3 ± 4.3 | 58.7 ± 4 | 53.7 ± 3.7
8 | C1CCOC1 [tetrahydrofuran] + CCCC[N+]1(C)CCOCC1.N#C[C-](C#N)C#N | – | – | – | – | – | – | – | – | – | 1.12 ± 0.07 | 1.15 ± 0.07 | 1.17 ± 0.07 | 1.18 ± 0.08 | 1.21 ± 0.08 | 1.22 ± 0.08
9 | CCCCC [pentane] + CCCC[N+]1(C)CCOCC1.N#C[C-](C#N)C#N | – | – | – | – | – | – | – | – | – | 39.7 ± 2.7 | 35.5 ± 2.4 | 32.2 ± 2.2 | 29.8 ± 2 | 27.7 ± 1.9 | 26.2 ± 1.8
10 | C=CCCCCC [1-heptene] + CCCC[N+]1(C)CCOCC1.N#C[C-](C#N)C#N | – | – | – | – | – | – | – | – | – | 34.1 ± 2.3 | 32 ± 2.2 | 30.2 ± 2.1 | 28.7 ± 2 | 27.2 ± 1.9 | 25.7 ± 1.8
11 | CC(C)O [propan-2-ol] + CCCC[N+]1(C)CCOCC1.N#C[C-](C#N)C#N | – | – | – | – | – | – | – | – | – | 1.71 ± 0.11 | 1.59 ± 0.11 | 1.5 ± 0.1 | 1.4 ± 0.09 | 1.33 ± 0.09 | 1.25 ± 0.08
12 | CCO [ethanol] + CCCC[N+]1(C)CCOCC1.N#C[C-](C#N)C#N | – | – | – | – | – | – | – | – | – | 1.26 ± 0.08 | 1.19 ± 0.08 | 1.12 ± 0.07 | 1.06 ± 0.07 | 1.01 ± 0.06 | 0.965 ± 0.061
13 | CCOCC [diethyl ether] + CCCC[N+]1(C)CCOCC1.N#C[C-](C#N)C#N | – | – | – | – | – | – | – | – | – | 5.39 ± 0.37 | 5.33 ± 0.36 | 5.27 ± 0.36 | 5.24 ± 0.36 | 5.21 ± 0.36 | 5.16 ± 0.35
14 | CCCC(C)=O [pentan-2-one] + CCCC[N+]1(C)CCOCC1.N#C[C-](C#N)C#N | – | – | – | – | – | – | – | – | – | 1.44 ± 0.09 | 1.47 ± 0.1 | 1.49 ± 0.1 | 1.5 ± 0.1 | 1.53 ± 0.1 | 1.54 ± 0.1
15 | CCOC(C)=O [ethyl acetate] + CCCC[N+]1(C)CCOCC1.N#C[C-](C#N)C#N | – | – | – | – | – | – | – | – | – | 1.88 ± 0.13 | 1.9 ± 0.13 | 1.92 ± 0.13 | 1.93 ± 0.13 | 1.96 ± 0.13 | 1.98 ± 0.13
16 | C#CCCCC [1-hexyne] + CCCC[N+]1(C)CCOCC1.N#C[C-](C#N)C#N | – | – | – | – | – | – | – | – | – | 5.47 ± 0.37 | 5.5 ± 0.37 | 5.5 ± 0.37 | 5.54 ± 0.38 | 5.53 ± 0.38 | 5.51 ± 0.38
17 | CCC(=O)OC [methyl propanoate] + CCCC[N+]1(C)CCOCC1.N#C[C-](C#N)C#N | – | – | – | – | – | – | – | – | – | 1.64 ± 0.11 | 1.67 ± 0.11 | 1.7 ± 0.11 | 1.73 ± 0.12 | 1.76 ± 0.12 | 1.79 ± 0.12
18 | C=CCCCCCC [oct-1-ene] + CCCC[N+]1(C)CCOCC1.N#C[C-](C#N)C#N | – | – | – | – | – | – | – | – | – | 52.7 ± 3.6 | 49.1 ± 3.4 | 45.7 ± 3.1 | 43 ± 2.9 | 40.6 ± 2.8 | 38.1 ± 2.6
19 | CCCC(=O)OC [methyl butanoate] + CCCC[N+]1(C)CCOCC1.N#C[C-](C#N)C#N | – | – | – | – | – | – | – | – | – | 2.42 ± 0.16 | 2.46 ± 0.17 | 2.49 ± 0.17 | 2.51 ± 0.17 | 2.54 ± 0.17 | 2.56 ± 0.17
20 | C1CCCC1 [cyclopentane] + CCCC[N+]1(C)CCOCC1.N#C[C-](C#N)C#N | – | – | – | – | – | – | – | – | – | 14.7 ± 1 | 13.7 ± 0.9 | 12.8 ± 0.9 | 12.1 ± 0.8 | 11.4 ± 0.8 | 10.9 ± 0.7
21 | CCCCCCCCCC [decane] + CCCC[N+]1(C)CCOCC1.N#C[C-](C#N)C#N | – | – | – | – | – | – | – | – | – | 289 ± 20 | 251 ± 17 | 224 ± 15 | 202 ± 14 | 183 ± 13 | 166 ± 11
22 | C=CCCCCCCCC [1-decene] + CCCC[N+]1(C)CCOCC1.N#C[C-](C#N)C#N | – | – | – | – | – | – | – | – | – | 118 ± 8 | 110 ± 8 | 101 ± 7 | 94.5 ± 6.5 | 87.8 ± 6 | 81.4 ± 5.6
23 | CCC(C)(C)C [2,2-dimethylbutane] + CCCC[N+]1(C)CCOCC1.N#C[C-](C#N)C#N | – | – | – | – | – | – | – | – | – | 56.7 ± 3.9 | 49.8 ± 3.4 | 44.5 ± 3 | 40.9 ± 2.8 | 37.7 ± 2.6 | 34.8 ± 2.4
24 | c1ccccc1 [benzene] + CCCC[N+]1(C)CCOCC1.N#C[C-](C#N)C#N | – | – | – | – | – | – | – | – | – | 1.53 ± 0.1 | 1.55 ± 0.1 | 1.57 ± 0.1 | 1.58 ± 0.1 | 1.61 ± 0.11 | 1.62 ± 0.11
25 | CC(C)(C)O [2-methylpropan-2-ol] + CCCC[N+]1(C)CCOCC1.N#C[C-](C#N)C#N | – | – | – | – | – | – | – | – | – | 2 ± 0.14 | 1.88 ± 0.13 | 1.77 ± 0.12 | 1.69 ± 0.11 | 1.63 ± 0.11 | 1.58 ± 0.1
26 | CCCOCCC [dipropyl ether] + CCCC[N+]1(C)CCOCC1.N#C[C-](C#N)C#N | – | – | – | – | – | – | – | – | – | 16.4 ± 1.1 | 15.9 ± 1.1 | 15.4 ± 1.1 | 14.9 ± 1 | 14.4 ± 1 | 13.9 ± 1
